{"source": "ChEMBL document CHEMBL1201862", "about": "“PubChem BioAssay data set” (2004)", "key": {"[1]": {"target": "T1, Rac GTPase-activating protein 1 (Homo sapiens, UniProt Q9H0H5)", "T1 sequence (Q9H0H5 whole entry)": "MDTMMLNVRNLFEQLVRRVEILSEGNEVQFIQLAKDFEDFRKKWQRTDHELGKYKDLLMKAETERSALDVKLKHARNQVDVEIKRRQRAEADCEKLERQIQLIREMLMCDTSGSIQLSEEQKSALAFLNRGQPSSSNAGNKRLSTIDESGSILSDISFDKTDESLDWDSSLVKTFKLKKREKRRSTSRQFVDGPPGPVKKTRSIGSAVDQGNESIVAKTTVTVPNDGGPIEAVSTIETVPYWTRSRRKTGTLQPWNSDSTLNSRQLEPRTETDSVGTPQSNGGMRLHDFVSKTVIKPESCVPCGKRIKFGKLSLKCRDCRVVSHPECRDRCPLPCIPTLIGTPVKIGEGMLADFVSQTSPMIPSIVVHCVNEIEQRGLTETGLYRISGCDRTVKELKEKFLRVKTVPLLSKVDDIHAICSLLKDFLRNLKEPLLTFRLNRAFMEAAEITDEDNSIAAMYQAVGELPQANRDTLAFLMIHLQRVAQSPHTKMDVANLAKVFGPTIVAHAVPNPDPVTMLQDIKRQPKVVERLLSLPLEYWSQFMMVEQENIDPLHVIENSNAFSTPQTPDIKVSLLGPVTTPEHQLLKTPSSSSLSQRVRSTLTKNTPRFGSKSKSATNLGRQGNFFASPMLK", "test": "blockers of MgcRacGAP-driven Rac1 GTP hydrolysis – biochemical, ADP Hunter fluorescence, primary and confirmatory, confirmation (AID 624330)", "format": "functional"}, "[2]": {"test": "viability loss in HeLa cells – cytotoxicity control for MgcRacGAP inhibitor project, dose response (AID 624300)", "format": "functional"}, "[3]": {"test": "cells", "format": "functional, cell-based"}, "[4]": {"target": "T2, Trace amine-associated receptor 1 (Homo sapiens, UniProt Q96RJ0)", "T2 sequence (Q96RJ0 whole entry)": "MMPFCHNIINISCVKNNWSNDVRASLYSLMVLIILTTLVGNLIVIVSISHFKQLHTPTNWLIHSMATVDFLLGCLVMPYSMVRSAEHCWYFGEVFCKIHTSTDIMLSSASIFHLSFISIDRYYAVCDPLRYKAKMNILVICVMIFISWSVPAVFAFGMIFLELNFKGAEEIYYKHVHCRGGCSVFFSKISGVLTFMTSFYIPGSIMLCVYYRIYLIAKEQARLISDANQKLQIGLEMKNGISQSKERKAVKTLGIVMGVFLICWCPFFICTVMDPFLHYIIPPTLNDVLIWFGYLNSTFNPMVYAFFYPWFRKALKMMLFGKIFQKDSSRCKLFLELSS", "test": "Counterscreen for agonists of the human trace amine associated receptor 1 (hTAAR1): Fluorescence-based cell-based high throughput dose response assay to identify hTAAR1 agonist that also desensitize TAAR1 receptor response.", "format": "functional"}, "[5]": {"target": "T2, Trace amine-associated receptor 1", "test": "Fluorescence-based cell-based high throughput dose response assay to identify agonists of the human trace amine associated receptor 1 (TAAR1).", "format": "functional"}, "[6]": {"test": "cells", "format": "functional, cell-based", "remark": "listed apart in the source"}, "[7]": {"target": "5-hydroxytryptamine receptor 2A (Mus musculus, UniProt P35363)", "sequence (P35363 whole entry)": "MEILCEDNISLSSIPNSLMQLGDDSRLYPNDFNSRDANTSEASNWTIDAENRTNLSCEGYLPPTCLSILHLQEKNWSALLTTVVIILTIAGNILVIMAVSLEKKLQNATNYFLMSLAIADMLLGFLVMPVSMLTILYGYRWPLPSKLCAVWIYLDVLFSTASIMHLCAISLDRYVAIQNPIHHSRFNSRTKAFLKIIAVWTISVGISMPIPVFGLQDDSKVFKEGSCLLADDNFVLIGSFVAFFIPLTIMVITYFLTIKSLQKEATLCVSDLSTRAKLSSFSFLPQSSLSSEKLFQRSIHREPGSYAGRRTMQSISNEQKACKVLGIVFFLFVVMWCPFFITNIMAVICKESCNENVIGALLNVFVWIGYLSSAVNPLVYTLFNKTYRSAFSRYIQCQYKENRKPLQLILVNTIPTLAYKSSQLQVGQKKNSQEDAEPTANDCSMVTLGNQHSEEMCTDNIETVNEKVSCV", "format": "functional, cell-based"}, "[8]": {"target": "Mu-type opioid receptor (Homo sapiens, UniProt P35372)", "sequence (P35372 whole entry)": "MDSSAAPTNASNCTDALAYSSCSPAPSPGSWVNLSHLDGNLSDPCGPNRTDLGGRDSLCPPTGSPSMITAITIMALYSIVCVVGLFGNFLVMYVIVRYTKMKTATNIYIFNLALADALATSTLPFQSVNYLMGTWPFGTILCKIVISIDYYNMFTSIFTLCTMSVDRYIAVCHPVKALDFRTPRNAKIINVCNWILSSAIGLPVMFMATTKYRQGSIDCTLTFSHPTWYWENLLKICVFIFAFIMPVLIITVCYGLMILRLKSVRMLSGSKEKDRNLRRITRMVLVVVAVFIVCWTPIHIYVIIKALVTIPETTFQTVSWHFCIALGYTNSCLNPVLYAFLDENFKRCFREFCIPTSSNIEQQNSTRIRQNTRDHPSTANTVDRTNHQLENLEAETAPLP", "format": "functional, cell-based"}, "[9]": {"system": "H4", "test": "Luminescence Cell-Based Dose Response HTS to Identify Activators of 5'UTR Stem-Loop Driven Prion Protein mRNA Translation in H4 Neuroglioblastoma Cells. [Related pubchem assays: 1829 (Project Summary), 1814 (Primary HTS)]", "format": "functional", "settings": "Homo sapiens"}, "[10]": {"target": "T3, DNA repair and recombination protein RAD54-like (Homo sapiens, UniProt Q92698)", "T3 sequence (Q92698 whole entry)": "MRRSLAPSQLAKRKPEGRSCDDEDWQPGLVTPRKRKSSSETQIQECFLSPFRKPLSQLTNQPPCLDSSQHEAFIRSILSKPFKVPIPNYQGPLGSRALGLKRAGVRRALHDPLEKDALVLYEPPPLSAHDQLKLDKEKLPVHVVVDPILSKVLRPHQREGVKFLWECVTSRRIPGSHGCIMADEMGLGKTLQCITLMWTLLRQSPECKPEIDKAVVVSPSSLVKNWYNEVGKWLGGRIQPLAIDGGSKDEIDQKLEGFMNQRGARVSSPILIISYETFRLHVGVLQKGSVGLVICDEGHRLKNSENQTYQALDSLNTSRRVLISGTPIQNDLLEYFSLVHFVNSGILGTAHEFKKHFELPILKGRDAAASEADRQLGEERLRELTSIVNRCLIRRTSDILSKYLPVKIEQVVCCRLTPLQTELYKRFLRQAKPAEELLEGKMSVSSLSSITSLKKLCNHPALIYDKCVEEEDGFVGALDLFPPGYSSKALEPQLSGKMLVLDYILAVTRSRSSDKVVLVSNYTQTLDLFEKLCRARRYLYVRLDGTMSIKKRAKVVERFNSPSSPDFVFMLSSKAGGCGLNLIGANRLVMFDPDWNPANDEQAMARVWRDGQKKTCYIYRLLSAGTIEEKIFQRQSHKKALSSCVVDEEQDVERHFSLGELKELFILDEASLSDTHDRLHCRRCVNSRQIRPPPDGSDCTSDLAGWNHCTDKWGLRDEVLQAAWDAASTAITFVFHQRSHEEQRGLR", "test": "RAD54 Holliday junction migration blockers – biochemical, fluorescence, cherry-picked samples, dose series, confirmation (AID 651657)", "format": "functional"}, "[11]": {"test": "Luminescence Cell-Based Dose Response HTS to Identify Activators of Luciferase Translation or Activity in H4 […] Cells. [Related pubchem assays: 1829 (Project Summary), 1814 (Primary HTS)]", "format": "functional"}, "[12]": {"test": "Luminescence Cell-Based Dose Confirmation HTS to Identify Activators of 5'UTR Stem-Loop Driven Alpha-Synuclein mRNA Translation in H4 Neuroglioblastoma Cells. [Related pubchem assays: 1829 (Project Summary), 1814 (Primary HTS)]", "format": "functional"}, "[13]": {"target": "T4, Corticotropin-releasing factor receptor 2/Corticotropin-releasing factor-binding protein (Homo sapiens, UniProt P24387+Q13324)", "T4 sequence (Q13324 whole entry)": "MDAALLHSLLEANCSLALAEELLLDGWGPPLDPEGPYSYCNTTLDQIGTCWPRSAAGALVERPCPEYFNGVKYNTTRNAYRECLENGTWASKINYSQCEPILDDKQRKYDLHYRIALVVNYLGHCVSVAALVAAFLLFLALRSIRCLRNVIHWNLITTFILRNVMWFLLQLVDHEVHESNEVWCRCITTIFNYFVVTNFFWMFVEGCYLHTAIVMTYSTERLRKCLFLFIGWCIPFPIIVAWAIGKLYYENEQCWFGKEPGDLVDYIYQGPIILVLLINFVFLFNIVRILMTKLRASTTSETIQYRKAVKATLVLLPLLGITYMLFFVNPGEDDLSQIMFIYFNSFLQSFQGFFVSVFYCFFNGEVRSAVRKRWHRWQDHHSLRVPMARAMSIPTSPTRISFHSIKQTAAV", "T4 sequence (P24387 whole entry)": "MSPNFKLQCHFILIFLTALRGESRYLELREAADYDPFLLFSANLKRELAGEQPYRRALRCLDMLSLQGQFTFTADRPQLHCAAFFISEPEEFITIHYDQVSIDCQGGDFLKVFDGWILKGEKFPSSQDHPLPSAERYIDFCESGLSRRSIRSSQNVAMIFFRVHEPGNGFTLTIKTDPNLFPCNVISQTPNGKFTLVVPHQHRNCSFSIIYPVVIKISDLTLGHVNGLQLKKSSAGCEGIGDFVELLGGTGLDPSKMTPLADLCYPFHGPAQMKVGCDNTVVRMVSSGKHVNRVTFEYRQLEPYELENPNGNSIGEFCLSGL", "test": "activators of CRF receptor 2 with binding protein – uHTS hits, confirmation (AID 602473)", "format": "functional", "settings": "read-out: EC50_Mean"}, "[14]": {"test": "blockers of CRF-binding protein–CRF-R2 complex – cell-based, uHTS hits, 384-well, dose response (AID 651639)", "format": "functional, Homo sapiens", "settings": "read-out: IC50_Mean"}, "[15]": {"target": "T4, Corticotropin-releasing factor receptor 2/Corticotropin-releasing factor-binding protein", "test": "Dose Response confirmation of uHTS hits for small molecule antagonists of the CRF-binding protein and CRF-R2 receptor complex.", "format": "functional", "settings": "read-out: IC50_Mean"}, "[16]": {"test": "inhibition of ADAM10 peptide cleavage – biochemical, FRET peptide substrate, recombinant human ADAM10, selectivity assay for ADAM17 exosite inhibitor project, dose response (AID 743259);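 further: ADAM10 enzyme cleaving a FRET peptide substrate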"}, "[17]": {"target": "Disintegrin and metalloproteinase domain-containing protein 17 (Homo sapiens, UniProt P78536)", "sequence (P78536 whole entry, the tested form may be a part)": "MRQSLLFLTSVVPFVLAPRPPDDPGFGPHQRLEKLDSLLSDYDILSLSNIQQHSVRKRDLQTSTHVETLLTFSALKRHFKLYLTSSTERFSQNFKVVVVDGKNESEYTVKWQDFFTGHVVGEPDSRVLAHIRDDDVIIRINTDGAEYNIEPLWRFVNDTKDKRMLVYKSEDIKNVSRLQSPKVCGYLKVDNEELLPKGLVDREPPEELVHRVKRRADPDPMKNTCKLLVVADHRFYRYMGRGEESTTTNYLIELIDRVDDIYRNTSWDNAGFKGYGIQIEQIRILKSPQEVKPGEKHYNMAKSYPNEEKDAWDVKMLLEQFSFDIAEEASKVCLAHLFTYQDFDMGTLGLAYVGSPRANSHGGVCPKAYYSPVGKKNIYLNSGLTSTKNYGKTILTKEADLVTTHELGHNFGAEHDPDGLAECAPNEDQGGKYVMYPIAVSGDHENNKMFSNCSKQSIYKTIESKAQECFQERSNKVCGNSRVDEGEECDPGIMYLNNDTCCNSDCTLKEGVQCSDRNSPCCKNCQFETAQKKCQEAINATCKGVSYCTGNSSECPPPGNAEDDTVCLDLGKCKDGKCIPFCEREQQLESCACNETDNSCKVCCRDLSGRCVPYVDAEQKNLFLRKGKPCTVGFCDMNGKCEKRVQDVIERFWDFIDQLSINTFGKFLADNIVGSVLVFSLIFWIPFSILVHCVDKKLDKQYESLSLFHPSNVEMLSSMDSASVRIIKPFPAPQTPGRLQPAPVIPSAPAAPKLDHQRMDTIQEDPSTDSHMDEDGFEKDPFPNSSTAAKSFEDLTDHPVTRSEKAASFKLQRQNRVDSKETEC", "test": "exosite inhibitors of ADAM17, dose response, biochemical (AID 743260)"}}, "note": "Calls of active or inactive are those of the source.", "data": [{"smiles": "CCN1C(=O)/C(=C2/C=Cc3cc(C)ccc3N2CC)N(C)C1=S", "values": [{"measurement": "IC50", "setting": "[1]", "value": "60.4 µM (active)"}, {"measurement": "CC50", "setting": "[2]", "value": "100 µM (active)"}]}, {"smiles": "O=C(NCCc1ccccc1)c1nc2nc(-c3cccs3)cc(C(F)(F)F)n2n1", "values": [{"measurement": "IC50", "setting": "[3]", "value": "24.1 µM (inactive)"}, {"measurement": "IC50", "setting": "[4]", "value": "1.91 µM (active)"}, {"measurement": "EC50", "setting": "[5]", "value": "0.346 µM (active)"}, {"measurement": "EC50", "setting": "[6]", "value": "> 29.9 µM (inactive)"}]}, {"smiles": "O=C(c1ccco1)N1CCN(CCCCN2C(=O)c3ccccc3C2=O)CC1", "values": [{"measurement": "EC50", "setting": "[7]", "value": "76.1 µM (inactive)"}, {"measurement": "EC50", "setting": "[8]", "value": "92.5 µM (inactive)"}]}, {"smiles": "CC1CCc2sc3nc(N4CCN(CCO)CC4)n4ncnc4c3c2C1", "note": "(configuration not stated)", "values": [{"measurement": "EC50", "setting": "[9]", "value": "34.7 µM (active)"}, {"measurement": "AC50", "setting": "[10]", "value": "34.7 µM (active)"}, {"measurement": "EC50", "setting": "[11]", "value": "8.04 µM (active)"}, {"measurement": "EC50", "setting": "[12]", "value": "24.7 µM (active)"}]}, {"smiles": "COc1ccccc1-c1ccc(SCc2cccc(F)c2)nn1", "values": [{"measurement": "EC50", "setting": "[13]", "value": "> 53 µM (inactive)"}, {"measurement": "IC50", "setting": "[14]", "value": "> 20 µM (inactive)"}, {"measurement": "IC50", "setting": "[15]", "value": "< 0.368 µM (active)"}]}, {"smiles": "COC(=O)c1ccc(CN2C(=O)C(C)N(C(=O)c3c(F)cccc3F)c3ccccc32)cc1", "note": "(configuration not stated)", "values": [{"measurement": "EC50", "setting": "[13]", "value": "> 53 µM (inactive)"}, {"measurement": "IC50", "setting": "[16]", "value": "> 69.5 µM (inactive)"}, {"measurement": "IC50", "setting": "[14]", "value": "17 µM (active)"}, {"measurement": "IC50", "setting": "[15]", "value": "< 0.368 µM (active)"}, {"measurement": "IC50", "setting": "[17]", "value": "> 69.5 µM (inactive)"}]}, {"smiles": "COc1cc(C(C)=O)ccc1OCC(O)CN1CCN(c2ccccn2)CC1", "note": "(configuration not stated)", "values": [{"measurement": "EC50", "setting": "[7]", "value": "0.321 µM (active)"}, {"measurement": "EC50", "setting": "[8]", "value": "92.5 µM (inactive)"}]}]}
